# Earlier results in patent US20060159622A1, “Pharmacodynamic assay for inhibitors of 11-beta-hydroxysteroid dehydrogenase activity in animal tissues” (priority 2003, published 2006).
# Test system: HSD
# Conditions: normal human volunteers
structure (smiles),measurement,value
CC1(C)[C@@H](OC(=O)CCC(=O)O)CC[C@]2(C)[C@H]3C(=O)C=C4[C@@H]5C[C@@](C)(C(=O)O)CC[C@]5(C)CC[C@@]4(C)[C@]3(C)CC[C@@H]12 [carbenoxolone],insulin sensitivity,increased insulin sensitivity
